For assay [1], the target named is Angiotensin-converting enzyme (Homo sapiens, UniProt P12821). Description: Inhibition of angiotensin converting enzyme (ACE). The format is protein assay.
A further assay has as its target T1, Neprilysin (Rattus norvegicus, UniProt P07861).
T1 sequence (P07861 whole entry): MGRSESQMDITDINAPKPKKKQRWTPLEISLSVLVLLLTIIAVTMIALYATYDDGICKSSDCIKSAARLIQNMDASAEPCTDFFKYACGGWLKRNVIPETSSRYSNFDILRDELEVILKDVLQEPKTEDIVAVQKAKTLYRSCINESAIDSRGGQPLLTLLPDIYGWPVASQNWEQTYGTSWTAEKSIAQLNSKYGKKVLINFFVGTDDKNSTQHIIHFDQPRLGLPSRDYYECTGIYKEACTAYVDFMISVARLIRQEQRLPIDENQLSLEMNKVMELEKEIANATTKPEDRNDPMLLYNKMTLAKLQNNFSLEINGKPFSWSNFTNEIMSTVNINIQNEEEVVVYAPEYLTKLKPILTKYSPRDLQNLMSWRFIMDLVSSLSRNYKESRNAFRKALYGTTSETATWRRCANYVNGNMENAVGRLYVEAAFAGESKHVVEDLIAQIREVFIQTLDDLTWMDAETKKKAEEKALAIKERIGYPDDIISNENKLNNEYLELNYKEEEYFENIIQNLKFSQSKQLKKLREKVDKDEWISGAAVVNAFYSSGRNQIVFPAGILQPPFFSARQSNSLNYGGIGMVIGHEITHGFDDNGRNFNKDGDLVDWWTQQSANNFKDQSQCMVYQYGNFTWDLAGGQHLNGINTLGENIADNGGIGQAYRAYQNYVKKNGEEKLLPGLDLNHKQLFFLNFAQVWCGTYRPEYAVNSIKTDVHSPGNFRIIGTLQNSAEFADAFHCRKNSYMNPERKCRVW
Description: Inhibition of neutral endopeptidase (NEP) 24.11.

The species entered for assay [2] is Rattus norvegicus. Description: Compound concentration that causes inhibition of angiotensin-I (AI) induced pressor response in normotensive rats after intra arterial injection. It counts as functional.
The species entered for assay [3] is Rattus norvegicus. Description: Time taken for 50 % or more inhibition of angiotensin-I (AI) induced pressor response in normotensive rats. It counts as functional.
For assay [4], the species on record is Rattus norvegicus. Description: Concentration that causes inhibition of angiotensin-I (AI) induced pressor response in normotensive rats after intra arterial injection. The format is functional.

Each structure is given as a SMILES string. pIC50: −log10 of the molar value.

With `CC(C)[C@H](S)C(=O)N[C@@H](Cc1ccc(-c2ccccc2)cc1)C(=O)N1CCC[C@H]1C(=O)O`, the IC50 (in general, the concentration that inhibits the measured activity by half) in assay [1] amounted to 319 nM. Further, the pIC50 – broadly, the IC50 on a negative log10 scale, so that one unit is a factor of ten – against Neprilysin is 6.30.

With `CC(C)[C@H](S)C(=O)N[C@@H](Cc1ccc(-c2ccccc2)cc1)C(=O)N[C@H](C(=O)O)C(C)C`, the Inhibition in the assay listed under Rattus norvegicus [2] came to 10 mg/kg. For the same compound, the Duration of action in the assay filed under Rattus norvegicus [3] is 70 min. Besides, the half-inhibitory concentration (IC50) in assay [1] worked out at 175 nM. The pIC50 against Neprilysin is 7.48.

Take `O=C(N[C@@H](Cc1ccc(-c2ccccc2)cc1)C(=O)O)[C@H](S)Cc1ccccc1`: the IC50 in assay [1] turned out to be 688 nM. For the same compound, the pIC50 on Neprilysin was 7.00.

As for `O=C(N[C@@H](Cc1ccc2ccccc2c1)C(=O)N1CCC[C@H]1C(=O)O)[C@@H](S)Cc1ccccc1`, the Inhibition in the assay filed under Rattus norvegicus [4] was 10 mg/kg. Further, in the assay listed under Rattus norvegicus [3], the Duration of action worked out at 25 min. Further, the 50% inhibitory concentration (IC50) in assay [1] is recorded as 18 nM. At Neprilysin, this compound had a pIC50 of 6.15.

Compound `O=C(N[C@@H](Cc1ccc(-c2ccccc2)cc1)C(=O)N1CCC[C@H]1C(=O)O)[C@@H](S)c1ccc2c(c1)OCO2` yielded a half-inhibitory concentration (IC50) in assay [1] of 183 nM. At Neprilysin, this compound had a pIC50 of 6.41.

In assay [1], `O=C(N[C@@H](Cc1ccc2ccccc2c1)C(=O)N1CCC[C@H]1C(=O)O)[C@H](S)Cc1ccccc1` registered a concentration for half-maximal inhibition (IC50) of 304 nM. The pIC50 against Neprilysin was 6.23.

Take `CC(C)[C@H](S)C(=O)N[C@@H](Cc1ccc(-c2ccccc2)cc1)C(=O)N[C@@H](Cc1ccc(O)cc1)C(=O)O`: in the assay listed under Rattus norvegicus [4], the Inhibition is 10 mg/kg. This compound gave a Duration of action in the assay listed under Rattus norvegicus [3] of 60 min. This compound displayed an IC50 in assay [1] of 62 nM. The same compound had a pIC50 on Neprilysin of 7.55.

For `O=C(N[C@@H](Cc1cccc2ccccc12)C(=O)N1CCC[C@H]1C(=O)O)[C@@H](S)Cc1ccccc1`, the IC50 in assay [1] was 14 nM. This compound also gave a pIC50 on Neprilysin of under 6.00.

Take `CC(C)[C@H](S)C(=O)N[C@@H](Cc1ccc(-c2ccccc2)cc1)C(=O)N[C@@H](CO)C(=O)O`: in assay [1], the IC50 is 100 nM. Moreover, the pIC50 against Neprilysin is 7.37.

With `O=C(N[C@@H](Cc1ccc(-c2ccccc2)cc1)C(=O)N1CCC[C@H]1C(=O)O)[C@H](S)c1ccc2c(c1)OCO2`, the IC50 in assay [1] was determined as 378 nM. The compound also gave a pIC50 on Neprilysin of 6.65.

For `O=C(N[C@@H](Cc1ccc(-c2ccccc2)cc1)C(=O)N1CCC[C@H]1C(=O)O)[C@H](S)Cc1ccccc1`, in assay [1], the IC50 is 229 nM. This compound had a pIC50 against Neprilysin of 7.23.

`O=C(O)[C@H](Cc1ccc(-c2ccccc2)cc1)NC(=O)[C@@H](S)Cc1ccccc1`: the IC50 in assay [1] worked out at 80 nM. The compound also showed a pIC50 on Neprilysin of 6.18.

`O=C(N[C@@H](Cc1cccc2ccccc12)C(=O)N1CCC[C@H]1C(=O)O)[C@H](S)Cc1ccccc1`: the half-maximal inhibitory concentration (IC50) in assay [1] came out at 27 nM. Moreover, at Neprilysin, the pIC50 was under 6.00.

As to `O=C(N[C@@H](Cc1ccc(-c2ccccc2)cc1)C(=O)N1CCC[C@H]1C(=O)O)[C@@H](S)Cc1ccccc1`, the Inhibition in the assay listed under Rattus norvegicus [4] was found to be 10 mg/kg. In addition, in the assay listed under Rattus norvegicus [3], the Duration of action was found to be 50 min. In assay [1], this compound had a 50% inhibitory concentration (IC50) of 57 nM. Further, the pIC50 at Neprilysin was 6.93.

The record behind these values is ChEMBL document CHEMBL1128869, “-Mercaptoacyl dipeptides that inhibit angiotensin converting enzyme and neutral endopeptidase 24.11” (Bioorg Med Chem Lett, 1995).
